Reference: article PMC8780741, “Integration of In Silico, In Vitro and In Situ Tools for the Preformulation and Characterization of a Novel Cardio-Neuroprotective Compound during the Early Stages of Drug Development” (Pharmaceutics, 2022)
Converted amounts (≈) assume the structure as drawn. Where two headings read alike, the source gives them in different places.

Experiments:
[1] = Thermodynamic solubility, shake-flask saturation method, and dose number; type: physicochemical; settings: for solubility: USP buffer solution; for Do (dose number): D = 140 mg, 250 mL
Procedure: For the solubility study, six buffer solutions (pH 1.2, 3.0, 4.0, 4.5, 6.8 and 7.4) were prepared following the protocols published in the USP XXXVIII, United States Pharmacopoeia, as described above.
Solubility experiments for JM-20 were carried out according to the main regulatory guidelines for biowaivers. The tests were performed at the three recommended pH values (pH 1.2, 4.5 and 6.8) as well as pH […], 4.0 and 7.4 (USP buffer formulations). The shake-flask saturation method proposed by Baka et al. was used in the solubility study and the recommendations of Avdeef et al. were followed to improve the quality of the solubility data. The temperature was regulated at 37 °C. Equilibration times were 6 h stirring + 18 h sedimentation. At the end of equilibration, the two phases were separated by careful decantation. The samples were analyzed with a Thermo Fisher UV-Vis Spectrophotometer (λmax = 262 nm). A linear range of 2–20 μg/mL was obtained (r^2 > 0.99). Once the solubility range was determined, the dose number (Do) was calculated following Equation (1) (1) Do=D/Vo/Cs where D is the highest strength or highest dose administered (mg) according to FDA or EMA criteria, Vo is the volume of water ([…]).

[2] = Provisional BCS classification; parameters: key: drugs with high solubility/high permeability (Class 1); drugs with low solubility/high permeability (Class 2); drugs with high solubility/low permeability (Class 3); drugs with low solubility/low permeability (Class 4)
Source text: The Biopharmaceutics Classification System (BCS) is a widely used scientific framework for waiver of in vivo bioequivalence studies, as well as for decision-making in drug discovery and development. This tool classifies drug substances according to solubility/dosage and permeability values as follows: drugs with high solubility/high permeability (Class 1), drugs with low solubility/high permeability (Class 2), drugs with high solubility/low permeability (Class 3) and drugs with low solubility/low permeability (Class 4). BCS has proven to be a very important tool for the identification of compounds whose solubility and absorption characteristics may be sensitive to physiological and formulation variables, allowing early optimization in the preformulation stages from the knowledge of the physicochemical properties of the active pharmaceutical ingredient (API). In this sense, it is evident that new compounds with low permeability and solubility/dissolution will have low and highly variable oral bioavailability, which may limit the chances of developing a clinically useful product.
Different provisional biopharmaceutical classification systems have been described in the literature. They mainly use alternative methodologies to predict intestinal permeability. Following the proposal of Kasim et al., JM-20 is a BCS Class 2, based on the aqueous solubility value at room temperature and in silico partition coefficients (log P and ClogP). JM-20 is also classified as BCS class 2 compound by the method proposed by Pham-The et al. where a provisional biopharmaceutical classification was developed based on solubility data (dose number, Do) and predicted or measured permeability in Caco-2 cells. At the same time, permeability values of JM-20 obtained with in vitro cell lines and in situ perfusion in rat were considered for the biopharmaceutical classification of this compound.

[3] = Human oral fraction absorbed estimated from rat intestinal permeability; settings: calculated from rat permeability values in all segments (whole small intestine)
Source text: The permeability values obtained in the different intestinal sections (See Table 4) corroborate the results obtained in the cell lines. […] This supports that if a compound has a high absorbed dose fraction, it will have a high-permeability, not necessarily in the jejunum, but somewhere along the relevant intestinal absortive regions. Correlations between permeability values in the rat small intestine (whole or segments) obtained by Doluisio’s method and their correlation with the orally absorbed fraction in humans were previously published. In fact, Fabs can be calculated considering the permeability values in all segments (whole small intestine) and the estimated oral absorbed fraction was 85.12%. According to this property, the drug may be a good candidate to be formulated for oral administration.

[4] = Apparent permeability across Caco-2 monolayers; type: in vitro ADME; settings: human
Procedure: MDCK (Madin–Darby Canine Kidney) cells, their transfected clone MDCK-MDR1, and Caco-2 cells were grown in the modified Dulbecco Eagle medium added with L-glutamine, fetal bovine serum and penicillin−streptomycin. The number of cells seeded in transwells with a surface area of 4.2 cm^2 depended on the cell line: 250,000 cells/cm^2 for MDCK and Caco-2 and 150,000 cells/cm^2 for MDCK-MDR1. Experiments were performed between 7 and 9 days for MDCK and MDCK-MDR1 and between 19 and 21 for Caco-2 cells after seeding. Prior to drug placement, cell monolayer integrity was assessed by measuring transepithelial electrical resistance (TEER). Transport studies were performed on an orbital shaker at 37 °C and 50 rpm. Four samples of 200 μL were taken from the receptor side at 0, 15, 30, 60 and 90 min, and two samples from the donor compartment at the beginning and end of the experiment. A standard experiment was performed with the same buffer for the apical and basolateral compartments in the apical to basolateral (A-B) and basolateral to apical (B-A) directions. The drug concentration was 100 μM in all experiments and samples were analyzed immediately by HPLC. The retention time was 2.3 min at maximum wavelengths (λmax = 260 nm). The conditions used for HPLC analyses were: mobile phase composed of a mixture of 50% H2O (95% H2O + 0.5% trifluoroacetic) and another 50% HPLC-grade methanol. The stationary phase composed of a Phenomenex® KJ0-4282 column, with two 2 μm filters filled with C-18 microparticles of 40 μm size and a Nova Pak C-18 stainless-steel column of 150 mm length. […] The lower limit of quantitation of JM-20 was adequate to interpolate the values obtained in the samples.
The apparent permeability coefficient was calculated according to the following Equation (2):(2) Creceiver,t=Qtotal/Vreceiver+Vdonor+Creceiver,t−1·f−Qtotal/Vreceiver+Vdonor·e^−Peff0,1·S·1/Vreceiver+1/Vdonor·Δt where Creceiver,t is the concentration of the drug in the receiver compartment at the time t, Qtotal is the total amount of drug in receiver and donor chambers, Vreceiver and Vdonor are the volumes of receiver and donor chamber, respectively, Creceiver,t−1 is the concentration of the drug in receiver compartment at the previous time, f is the replacement dilution factor of the sample, S is the surface area of the monolayer, Δt is the time interval and Peff is the coefficient of permeability, as was described by Mangas-Sanjuan et al. All calculations were developed in Microsoft® Excel (2018).

For `CCOC(=O)C1=C(C)NC2=C(C=Nc3ccccc3N2)C1c1ccccc1[N+](=O)[O-]` (stereo not drawn) [JM-20, 3-ethoxycarbonyl-2-methyl-4-(2-nitrophenyl)-4,11-dihydro-1H-pyrido [2,3-b][1,5] benzodiazepine], which solubility ([1]; aqueous buffer, thermodynamic from solid, buffer pH 1.2, 37 °C, shake-flask, read-out: Solubility ± SD) is on record?
Its solubility is 9.18 ± 0.16 µg/mL (≈ 22.7 µM).

And the solubility ([1]; aqueous buffer, thermodynamic from solid, buffer pH 3.5, 37 °C, shake-flask, read-out: Solubility ± SD)?
Its solubility is 12.7 ± 0.83 µg/mL (≈ 31.5 µM).

What about the solubility ([1]; aqueous buffer, thermodynamic from solid, buffer pH 4.0, 37 °C, shake-flask, read-out: Solubility ± SD) of the same compound?
The solubility was 25.4 ± 0.66 µg/mL (≈ 62.8 µM).

What about the solubility ([1]; aqueous buffer, thermodynamic from solid, buffer pH 4.5, 37 °C, shake-flask, read-out: Solubility ± SD) of the same compound?
Its solubility is 30.8 ± 1.29 µg/mL (≈ 76.3 µM).

What about the solubility ([1]; aqueous buffer, thermodynamic from solid, buffer pH 6.8, 37 °C, shake-flask, read-out: Solubility ± SD) of the same compound?
Its solubility is 11.3 ± 0.69 µg/mL (≈ 27.9 µM).

And the solubility ([1]; aqueous buffer, thermodynamic from solid, buffer pH 7.4, 37 °C, shake-flask, read-out: Solubility ± SD)?
Its solubility is 12.6 ± 0.36 µg/mL (≈ 31.3 µM).

And the solubility ([1]; pH 1.2, acidic pH, read-out: Solubility at acidic pH (abstract))?
The solubility was 9.18 ± 0.16 µg/mL (≈ 22.7 µM).

And the “Dose number (Do)” value ([1]; at the different pH values, dose 140 mg)?
Its value is “greater than 1”.

And the “D0 (dose number)” value ([1]; calculated with the lowest aqueous solubility)?
The value was 61.

And the “Do (dose number)” value ([1]; pH 1.2)?
Its value is 61.00.

And the “Do (dose number)” value ([1]; pH 3.5)?
Its value is 44.03.

What about the “Do (dose number)” value ([1]; pH 4.0) of the same compound?
Its value is 22.06.

And the “Do (dose number)” value ([1]; pH 4.5)?
The value was 18.16.

What about the “Do (dose number)” value ([1]; pH 6.8) of the same compound?
The value was 49.56.

What about the “Do (dose number)” value ([1]; pH 7.4) of the same compound?
The value was 44.30.

And the BCSCaco-2 ([2]; BCS class from dose number and Caco-2 permeability)?
The BCSCaco-2 was 2.

And the BCSMDCK ([2]; BCS class from dose number and MDCK permeability)?
The BCSMDCK was 2.

And the BCSrat ([2]; BCS class from dose number and rat in situ permeability)?
The BCSrat was 2.

And the BCSGlobal ([2]; overall provisional BCS class)?
Its BCSGlobal is 2.

And the “Estimated oral absorbed fraction (Fabs) in humans” value [3]?
Its value is 85.12%.

And the Papp A→B at 90 min, 100 µM ([4]; Caco-2, Caco-2, 100 μM, 37 °C, stirring at 50 rpm)?
The Papp A→B at 90 min, 100 µM was 38.3 ± 1.8 ×10⁻⁶ cm/s.

What about the Papp at 90 min, 100 µM ([4]; Caco-2, read-out: Permeability, Caco-2 value (abstract)) of the same compound?
The Papp at 90 min, 100 µM was 38 ×10⁻⁶ cm/s.

And the Papp B→A at 90 min, 100 µM ([4]; Caco-2, 100 μM, 37 °C, stirring at 50 rpm)?
Its Papp B→A at 90 min, 100 µM is 8.5 ± 2.4 ×10⁻⁶ cm/s.

And the efflux ratio at 90 min, 100 µM ([4]; Caco-2 bidirectional transport)?
Its efflux ratio at 90 min, 100 µM is 0.13.
